System: Hepal-6 hepatoma cells
Test: Tumor growth inhibition rate in mouse model (Hepal-6 hepatoma cells transplanted into C57BL/6 mice)
Type: in vivo, mice (C57BL/6)
Protocol: (E)-N1-(3-(dimethylamino)propyl)-N8-hydroxy-2-((naphthalen-1-yloxy)methyl)-2-octenediamide phosphate (CG-745, CAS No. 2173017-02-0) was used as the alkylcarbamoyl naphthalenyloxy octenoyl hydroxyamide compound, and BP0146 (BioXcell, West Lebanon, N.H., USA) was used as the anti-PD-1 antibody.
1×10^6 Hepal-6 hepatoma cells were injected into the left flank of 6-week-old C57BL6 mice. After 5 days, they were separated into 4 groups for administration of the vehicle, CG-745 alone, the anti-PD-1 antibody alone, or a combination of CG-745 and the anti-PD-1 antibody. The tumor volume was defined as (long axis)×(short axis)^2×0.5. […] Vehicle, CG-745, and the anti-PD-1 antibody were administered intraperitoneally (I.P). CG-745 was administered at a dose of 20 mg/kg for 5 consecutive days followed by 2 days of rest (1 treatment cycle) and the treatment cycle was repeated 3 times. The anti-PD-1 antibody was administered once at a dose of 5 mg/kg together with CG-745 on the fifth day of the first treatment cycle of CG-745.
The average inhibition rate of tumor growth for 9 mice is shown in FIG. 1, and the results for each of 9 mice are shown in FIG. 2.

In the case of `CN(C)CCCNC(=O)/C(=C/CCCCC(=O)NO)COc1cccc2ccccc12.O=P(O)(O)O` [Comparative Example 1, (E)-N1-(3-(dimethylamino)propyl)-N8-hydroxy-2-((naphthalen-1-yloxy)methyl)-2-octenediamide phosphate], the “tumor growth inhibition rate” value (Day 32, average of 9 mice, CG-745 20 mg/kg I.P. 5 days on/2 days off x 3 cycles, anti-PD-1 antibody 5 mg/kg I.P. once) is reported as 73.8% and the “number of mice in which the tumor disappeared” value (of 9 mice per group, same dosing as the tumor growth inhibition rate) is reported as 4 mice.
